The record followed here is patent US12692232B2, “Indole carboxamide compound, preparation therefor and use thereof” (NANJING RUISHUNING MEDICAL TECHNOLOGY CO., LTD., priority 2021, dated 2026).

Structures are written as SMILES.

For the assay, the target named is T1, TRPC6 channel (Homo sapiens, UniProt Q9Y210).
T1 sequence (Q9Y210 1-931): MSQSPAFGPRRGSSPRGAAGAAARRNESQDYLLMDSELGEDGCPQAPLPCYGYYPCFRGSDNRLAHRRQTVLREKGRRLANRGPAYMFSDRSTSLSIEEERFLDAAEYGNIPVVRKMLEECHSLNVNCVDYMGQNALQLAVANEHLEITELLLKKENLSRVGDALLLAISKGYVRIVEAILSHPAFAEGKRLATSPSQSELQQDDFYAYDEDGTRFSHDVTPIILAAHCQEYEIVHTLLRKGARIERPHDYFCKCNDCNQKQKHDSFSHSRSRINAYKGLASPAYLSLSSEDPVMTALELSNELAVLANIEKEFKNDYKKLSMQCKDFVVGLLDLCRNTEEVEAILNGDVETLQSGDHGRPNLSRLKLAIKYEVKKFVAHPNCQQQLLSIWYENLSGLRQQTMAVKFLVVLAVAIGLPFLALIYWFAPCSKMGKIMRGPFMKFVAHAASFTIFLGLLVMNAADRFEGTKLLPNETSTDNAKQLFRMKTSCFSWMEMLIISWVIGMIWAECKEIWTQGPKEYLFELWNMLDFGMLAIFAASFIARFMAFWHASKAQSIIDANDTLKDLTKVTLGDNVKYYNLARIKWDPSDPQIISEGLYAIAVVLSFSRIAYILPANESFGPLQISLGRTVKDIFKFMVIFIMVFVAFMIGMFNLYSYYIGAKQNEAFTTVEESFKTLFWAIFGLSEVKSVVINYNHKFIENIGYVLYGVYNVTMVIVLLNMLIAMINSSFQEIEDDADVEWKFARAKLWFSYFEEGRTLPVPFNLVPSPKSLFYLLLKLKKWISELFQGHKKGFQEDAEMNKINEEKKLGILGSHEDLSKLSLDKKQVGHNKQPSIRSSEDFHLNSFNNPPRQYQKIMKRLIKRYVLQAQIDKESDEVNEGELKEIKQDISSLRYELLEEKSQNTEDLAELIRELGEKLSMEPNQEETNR
Kind of assay: IC50 on TRPC6 channel-mediated Ca2+ entry in HEK293hTRPC6 cells. Particulars: HEK293hTRPC6, OAG 80 μM, Ca2+ 2 mM. More on the design: expressed in transfected cells; host or cells: HEK293 (lentiviral transduction, puromycin selection). Type of assay: cell-based. The protocol:
The half maximal inhibitory concentrations (IC50) of the compounds of the present invention (as exemplified by Compound 1-1 obtained in Example 1) on TRPC6 channel-mediated Ca^2+ entry were determined using HEK293hTRPC6, a tool cell overexpressing TRPC6 protein. Methods were as follows: HEK293hTRPC6, a tool cell overexpressing TRPC6 protein, was established in the same manner as in Example 7.
Determination of the effect of compounds on changes in intracellular calcium ion concentration in HEK293hTRPC6 cells: the mother solution of the compounds was diluted to the following concentrations, 0.1 nM, 0.3 nM, 1 nM, 3 nM, 10 nM, 30 nM, 100 nM, 300 nM, 1,000 nM, and 3,000 nM, respectively, using cell culture medium. […] The crawls were placed in the center of the bath, perfused with calcium-free Tyrode's solution for 5 min and fixed on the stage of an inverted fluorescence microscope. […] Fluorescence intensity was measured at different excitation wavelengths (340 nm, 380 nm) using a TILL Ion Imaging System (TILLvisION), and the value of fluorescence intensity emitted by intracellular fluorescent probe at different excitation wavelengths was substituted into the formula: [Ca^2+]i=Kd×β×(R−Rmin)/[…]. […] Dose-effect curves were fitted using GraphPad Prism software and the IC50 was calculated.

In turn, `Cn1c(C(=O)NCCC(=O)O)cc2ccccc21` [3-[(1-methyl-1H-indole-2-carbonyl)amino]propionic acid, reference compound] displayed an IC50 of 24.1 nM.

`CC(=O)OCCCNC(=O)c1c(C=O)c2ccccc2n1C` [compound 1-1, propyl 3-[(3-formyl-1-methyl-1H-indole-2-carbonyl)amino]acetate] showed an IC50 of 11.4 nM.
